According to patent US12485092B2, “Composition for promoting drug release of drug-delivery liposomes” (INDUSTRY ACADEMY COOPERATION FOUNDATION OF SEJONG UNIVERSITY, priority 2022, dated 2025):

Columns and labels:
[1] = system: HCT-116 colorectal cancer cells
in vivo = details: SD, rat, iv, 5 mg/kg
Description: Eight week-old SD rats were randomly divided into three groups (doxorubicin, CAELYX and CAELYX+omega liposome), respectively. Each group was anesthetized with 100 mg/kg of ketamine, followed by inserting polyethylene tubes into the jugular vein and the carotid for drug injection and blood gathering, respectively. To the three groups, the doxorubicin solution, CAELYX and a CAELYX+omega liposome mixture were intravenously administered through the jugular vein at a 5 mg/kg doxorubicin dose. Thereafter, 120 μL of blood was collected at 1, 5, 15, 30, 60, 120, 180, 240, 360, 480, 720, 960, 1,440, 2,160 and 2,880 minutes, respectively, and centrifuged, followed by gathering 50 μl of plasma to analyze a doxorubicin concentration through HPLC. In order to prevent blood coagulation after blood gathering, 0.3 mL of physiological saline for injection containing 201U of heparin was flushed. In addition, after drug administration, urine was collected up to 24 hours and measured for volume.
For quantification of doxorubicin concentration in plasma and urine, 100 μL of acetonitrile and 15 μL of 15 μg/mL daunorubicin (internal standard material) were added and well mixed in 50 μL of the plasma or urine, and then centrifuged at 13,000 rpm for 5 minutes to remove the plasma protein. Thereafter, 100 μL of the supernatant was introduced into HPLC column (reversed phase column, particle size 5 inner diameter 4.6 mm, length 250 mm). Mobile phase composed of 68:32 (v/v) mixture of water (pH 2.60) and acetonitrile was used at a flow rate of 1 mL/min. For detection of drugs, a fluorescence detector was used wherein excitation (Ex) wavelength is 475 nm and emission (Em) wavelength is 555 nm.
The plasma concentration of doxorubicin quantified by HPLC assay was used to calculate pharmacokinetic parameters using WinNonlin program. For statistical analysis of the pharmacokinetic parameters among the above three groups, Tukey's test was carried out after performing analysis of variance (ANOVA), wherein P<0.05 is considered to be statistically significant.

IC50 [1]: 265 nM
IC50 (B16-F10 melanoma cells): 191 nM
AUC (in vivo): 9820 ng·h/mL
MRT (in vivo): 1.18 h
clearance (in vivo): 8.91 ± 2.06 mL/min/kg
half-life (in vivo): 1.97 h
Compound: COc1cccc2c1C(=O)c1c(O)c3c(c(O)c1C2=O)C[C@@](O)(C(=O)CO)C[C@@H]3O[C@H]1C[C@H](N)[C@H](O)[C@H](C)O1 [Doxorubicin solution, doxorubicin]
